Source: US7901667B2, “Bridgehead labelled compounds and methods of using the same” (Mallinckrodt Inc., priority 2005, dated 2011)

Tests used:
[1] = X = Tosylate, relative to tert-Butyl, cited from earlier work; for Relative rate of hydrolysis, calc.: calculated; for Relative rate of hydrolysis, exp.: experimental
5-HT1A receptors = biological target: T1, 5-HT1A receptors (Homo sapiens, UniProt P08908); settings: cited from earlier work
T1 sequence (P08908 1-422): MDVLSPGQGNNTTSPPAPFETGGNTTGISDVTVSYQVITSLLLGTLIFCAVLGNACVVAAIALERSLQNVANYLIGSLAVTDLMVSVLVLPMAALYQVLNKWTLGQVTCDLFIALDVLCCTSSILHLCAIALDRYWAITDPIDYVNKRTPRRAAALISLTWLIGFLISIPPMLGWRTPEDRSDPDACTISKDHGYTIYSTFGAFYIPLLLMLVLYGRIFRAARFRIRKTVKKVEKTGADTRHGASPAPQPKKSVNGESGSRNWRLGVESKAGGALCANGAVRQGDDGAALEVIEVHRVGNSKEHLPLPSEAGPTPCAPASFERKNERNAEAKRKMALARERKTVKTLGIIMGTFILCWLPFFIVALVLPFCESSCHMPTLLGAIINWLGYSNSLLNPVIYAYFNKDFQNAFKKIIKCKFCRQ

[2] = amide hydrolysis; cited from earlier work
[3] = at 60 min, relative to whole brain average; cited from earlier work
α1-adrenoceptors = settings: cited from earlier work
[4] = biological target: T2, human recombinant human 5-HT1A receptor subtype (Homo sapiens, UniProt P08908); experiment: competitive binding assay with [^3H]8-OH-DPAT on membranes of HEK-293 EBNA-cells
T2 construct: purchased Perkin Elmer (Boston, USA); host or cells: HEK-293 EBNA cells (membrane suspension)
T2 sequence (P08908 1-422): T1 sequence (P08908 1-422)
Protocol: A membrane suspension from HEK-293 EBNA-cells expressing the human recombinant human 5-HT1A receptor subtype, was obtained from Perkin Elmer (Boston, USA). The protein concentration of the original suspension was 36.8 mg/mL.
Aliquots of these diluted membranes (factor 1:20) were incubated on microplates for 120 min at 37° C. in the dark. […] The incubation buffer contained 50 mM TRIS-HCl and 5 mM MgSO4 (pH to 7.4 at 25° C.). […] Non-specific binding was determined using 5-hydroxytryptamine (5-HT, serotonin) as a competitor in a concentration of 10 μM.
After the incubation period, the reaction was rapidly terminated by vacuum filtration over a GF/C glass fiber filters that were incorporated in the microplates and that were presoaked in 0.5% polyethylenimine (Sigma-Aldrich, Munich, Germany), and washed 5 times with ice-cold TRIS-HCl buffer. 25 μL of scintillation fluid (MicroScint™, Perkin Elmer, Boston, USA) were added to each well, after which the microplates were counted in a liquid scintillation counter (Topcount, Packard).
For each candidate tracer, the inhibition constant (Ki) was calculated from the […] for the 5-HT1A receptor with non-linear regression curve fitting using the computer program Graphpad Prism® (version 3.02).

SMILES | Relative rate of hydrolysis, calc. [1] | Relative rate of hydrolysis, exp. [1] | further results
Cc1ccc(S(=O)(=O)OC23CC4CC(CC(C4)C2)C3)cc1 [1-Adamantyl] | 10^−4 | 10^−3 | 
Cc1ccc(S(=O)(=O)OC23CCC(CC2)CC3)cc1 [1-Bicyclo[2.2.2]octyl] | 10^−8 | 10^−7 | 
Cc1ccc(S(=O)(=O)OC23CCC(CC2)C3)cc1 [1-Norbornyl] | 10^−14 | 10^−13 | 
COc1ccccc1N1CCN(CCN(C(=O)C2CC3CCC2CC3)c2ccccn2)CC1 (stereo not drawn) [CPC-222] |  |  | affinity with regard to WAY-100635 (5-HT1A receptors): comparable affinity; stability towards hydrolysis [2]: stable towards hydrolysis
Cc1ccc(S(=O)(=O)OC23C4C5C6C4C2C6C53)cc1 (stereo not drawn) [Cubyl] | <10^−25 | 10^−10 | 
COc1ccccc1N1CCN(CCN(C(=O)C2CCC(F)CC2)c2ccccn2)CC1 (stereo not drawn) [FCWAY] |  |  | skull uptake of [^18F] [3]: twice the whole brain average
COc1ccccc1N1CCN(CCN(C(=O)c2ccc(F)cc2)c2ccccn2)CC1 [MPPF] |  |  | affinity for the α1-adrenoceptors (α1-adrenoceptors): quite high affinity
COc1ccccc1N1CCN(CCN(C(=O)c2ccc([123I])cc2)c2ccccn2)CC1 [MPPI] |  |  | affinity for the α1-adrenoceptors (α1-adrenoceptors): quite high affinity
COc1ccccc1N1CCN(CCN(C(=O)C23C4C5C2C2C3C4C52I)c2ccccn2)CC1 (stereo not drawn) [iodocubyl-WAY] |  |  | affinity towards the human 5-HT1A (Ki) ([4]; [^3H]8-OH-DPAT 1.1 nM, 120 min at 37° C., n=4, values only in FIG. 6): subnanomolar range; rank of affinity among the bridgehead iodo WAY derivatives ([4]; iodobicyclooctyl, iodoadamantyl, iodonorbornyl and iodocubyl compared, FIG. 6): highest affinity
